Experiments:
[1] = molar heat capacity at constant pressure; details: 101.33 kPa, Liquid, DSC
[2] = 101 kPa, Liquid; for viscosity: Falling or rolling sphere viscometry; for mass density: Vibrating tube method
[3] = xn = mol fraction of the nth substance listed; details: 101 kPa, Liquid, x2 = 0; for viscosity: Falling or rolling sphere viscometry; for mass density: Vibrating tube method

Cn1cc[n+](CCC[N+](C)(C)C)c1.N#C[N-]C#N.N#C[N-]C#N
Details	mass density, [2] [kg/m3]	molar heat capacity at constant pressure, [1] [J/K/mol]	viscosity, [2] [mPa·s]
283.15 K	1162.82	–	4998
288.15 K	1159.76	–	2736
293.15 K	1156.74	–	1608
298.15 K	1153.73	519.44	1007
303.15 K	1150.76	521.65	662.9
308.15 K	1147.8	523.85	455.4
313.15 K	1144.89	526.06	324.6
318.15 K	1142	527.95	239.7
323.15 K	1139.11	530.48	181.2
328.15 K	1136.24	532.69	141.1
333.15 K	1133.4	535.21	111.9
338.15 K	–	537.1	–
343.15 K	–	539.62	–
348.15 K	–	541.83	–
353.15 K	–	543.72	–
358.15 K	–	546.25	–
363.15 K	–	548.14	–
368.15 K	–	550.66	–
373.15 K	–	553.19	–
378.15 K	–	555.39	–
383.15 K	–	557.92	–
388.15 K	–	560.12	–
393.15 K	–	562.33	–
398.15 K	–	564.85	–
403.15 K	–	567.06	–
408.15 K	–	569.27	–
413.15 K	–	571.79	–
418.15 K	–	574.32	–
423.15 K	–	576.21	–

CC(C)O [propan-2-ol]
[2]
Details	mass density [kg/m3]	viscosity [mPa·s]
283.15 K	793.67	3.352
288.15 K	789.58	2.843
293.15 K	785.44	2.423
298.15 K	781.24	2.08
303.15 K	776.97	1.792
308.15 K	772.62	1.554
313.15 K	768.18	1.352
318.15 K	763.65	1.183
323.15 K	759.01	1.039
328.15 K	754.26	0.918
333.15 K	749.39	0.813

CC(C)O [propan-2-ol] + Cn1cc[n+](CCC[N+](C)(C)C)c1.N#C[N-]C#N.N#C[N-]C#N
[3]
Details	mass density [kg/m3]	viscosity [mPa·s]
283.15 K	793.67	3.352
288.15 K	789.58	2.843
293.15 K	785.44	2.423
298.15 K	781.24	2.08
303.15 K	776.97	1.792
308.15 K	772.62	1.554
313.15 K	768.18	1.352
318.15 K	763.65	1.183
323.15 K	759.01	1.039
328.15 K	754.26	0.918
333.15 K	749.39	0.813
